Drawing on ChEMBL document CHEMBL2074248, “Regulation of biliary drug efflux pump expression by hormones and xenobiotics” (Toxicology, 2001), this text covers Activity for 1 molecule.

For data set [1], the target named is T1, Bile salt export pump (Rattus norvegicus, UniProt O70127).
T1 sequence (O70127 whole entry): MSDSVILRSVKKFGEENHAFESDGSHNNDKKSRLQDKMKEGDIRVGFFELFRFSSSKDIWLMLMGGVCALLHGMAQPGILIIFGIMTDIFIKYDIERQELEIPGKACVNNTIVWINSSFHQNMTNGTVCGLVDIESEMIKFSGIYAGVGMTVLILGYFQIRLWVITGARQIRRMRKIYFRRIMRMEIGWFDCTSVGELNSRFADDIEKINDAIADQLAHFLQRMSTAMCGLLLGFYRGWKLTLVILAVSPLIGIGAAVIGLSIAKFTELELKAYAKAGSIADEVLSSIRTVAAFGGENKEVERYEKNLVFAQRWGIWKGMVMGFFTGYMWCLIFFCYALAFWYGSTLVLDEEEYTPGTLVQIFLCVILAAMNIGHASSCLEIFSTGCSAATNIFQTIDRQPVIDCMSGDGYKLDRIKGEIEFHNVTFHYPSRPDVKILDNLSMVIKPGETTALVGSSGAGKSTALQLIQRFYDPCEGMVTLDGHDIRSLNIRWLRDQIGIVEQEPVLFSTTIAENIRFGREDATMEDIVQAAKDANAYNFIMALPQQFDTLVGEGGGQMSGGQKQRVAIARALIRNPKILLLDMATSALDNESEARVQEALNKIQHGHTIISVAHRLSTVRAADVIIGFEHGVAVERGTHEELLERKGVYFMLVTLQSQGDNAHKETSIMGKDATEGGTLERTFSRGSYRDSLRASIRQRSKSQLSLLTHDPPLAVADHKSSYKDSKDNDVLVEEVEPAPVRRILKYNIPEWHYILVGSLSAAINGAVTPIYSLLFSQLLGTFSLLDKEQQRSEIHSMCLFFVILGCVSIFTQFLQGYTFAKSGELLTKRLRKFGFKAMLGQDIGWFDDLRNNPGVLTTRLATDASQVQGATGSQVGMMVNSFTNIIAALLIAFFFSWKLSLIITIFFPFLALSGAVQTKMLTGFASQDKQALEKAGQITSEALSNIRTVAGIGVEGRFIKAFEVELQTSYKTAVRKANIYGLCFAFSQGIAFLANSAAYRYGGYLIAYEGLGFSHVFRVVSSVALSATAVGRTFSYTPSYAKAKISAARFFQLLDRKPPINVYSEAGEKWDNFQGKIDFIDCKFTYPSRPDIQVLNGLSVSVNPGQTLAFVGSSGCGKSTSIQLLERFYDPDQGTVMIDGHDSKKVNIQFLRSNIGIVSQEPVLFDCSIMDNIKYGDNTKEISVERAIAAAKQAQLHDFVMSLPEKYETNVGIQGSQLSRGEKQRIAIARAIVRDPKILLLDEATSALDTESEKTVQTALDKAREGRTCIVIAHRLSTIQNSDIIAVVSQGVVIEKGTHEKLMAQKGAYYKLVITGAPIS
Put plainly: TP_TRANSPORTER: Northern blot from primary hepatocytes. Format: functional, cell-based, Sprague-Dawley, Hepatocyte.

In data set [2] the target is T1, Bile salt export pump. Put plainly: TP_TRANSPORTER: Northern blot in vivo rat. Format: functional, organism-based, Liver.

Turning to `C[C@@H]1C[C@H]2[C@@H]3CCC4=CC(=O)C=C[C@]4(C)[C@@]3(F)[C@@H](O)C[C@]2(C)[C@@]1(O)C(=O)CO` [DEXAMETHASONE], the Activity result at Bile salt export pump [1] and at Bile salt export pump [2] was “inducer [+]” in each case.
